Organism: Rattus norvegicus
Test: Open TG-GATES - Regimen: Single
Type: toxicity, organism-based, Sprague-Dawley
Design: regimen Single, gender Male, age 6 weeks
Details: in vivo, po, route gavage; for APTT / Bas / Eos / Fbg / Hb / Ht / Lym / MCH / MCHC / MCV / Mono / Neu / PT / Plat / RBC / Ret / WBC: tissue Blood; for KIDNEY_L / KIDNEY_R / KIDNEY_TOTAL: tissue Kidney; for LIVER: tissue Liver; for A/G / ALP / ALT / AST / BUN / CRE / Ca / Cl / DBIL / GLC / IP / K / LDH / Na / PL / RALB / TBIL / TC / TG / TP / gamma-GTP: tissue Plasma
[1] = 60 mg/kg, 3 h, dose level Middle
[2] = 60 mg/kg, 6 h, dose level Middle
[3] = 60 mg/kg, 9 h, dose level Middle
[4] = 60 mg/kg, 24 h, dose level Middle
[5] = 200 mg/kg, 3 h, dose level High
[6] = 200 mg/kg, 6 h, dose level High
[7] = 200 mg/kg, 9 h, dose level High
[8] = 200 mg/kg, 24 h, dose level High

Cn1c(=O)c2[nH]cnc2n(C)c1=O.O [THEOPHYLLINE]
TERMINAL_BW [1]: 215.5 g
APTT [1]: 22.1 s
Bas [1]: 0%
Eos [1]: 1.2%
Fbg [1]: 306 mg/dL
Hb [1]: 12.6 g/dL
Ht [1]: 38.3%
Lym [1]: 68.6%
MCH [1]: 20.2 pg
MCHC [1]: 32.9%
MCV [1]: 61.6 fL
Mono [1]: 2.2%
Neu [1]: 26.4%
PT [1]: 15.4 s
Plat [1]: 117 x10_4/uL
RBC [1]: 622.6 x10_4/ul
Ret [1]: 7.6%
WBC [1]: 72.7 x10_2/uL
KIDNEY_L [1]: 1 g
KIDNEY_R [1]: 1 g
KIDNEY_TOTAL [1]: 1.9 g
LIVER [1]: 9.3 g
A/G [1]: 1.3
ALP [1]: 1415.2 IU/L
ALT [1]: 44.8 IU/L
AST [1]: 80.2 IU/L
BUN [1]: 13 mg/dL
CRE [1]: 0.2 mg/dL
Ca [1]: 10.2 mg/dL
Cl [1]: 108 meq/L
DBIL [1]: 0 mg/dL
GLC [1]: 184.4 mg/dL
IP [1]: 7.3 mg/dL
K [1]: 3.5 meq/L
LDH [1]: 184.2 IU/L
Na [1]: 140.6 meq/L
PL [1]: 120 mg/dL
RALB [1]: 3.2 g/dL
TBIL [1]: 0.022 mg/dL
TC [1]: 67.8 mg/dL
TG [1]: 33.6 mg/dL
TP [1]: 5.6 g/dL
gamma-GTP [1]: 1.6 IU/L
TERMINAL_BW [2]: 215.8 g
APTT [2]: 23.9 s
Bas [2]: 0%
Eos [2]: 0.8%
Fbg [2]: 302.8 mg/dL
Hb [2]: 13.1 g/dL
Ht [2]: 40%
Lym [2]: 75.2%
MCH [2]: 20.9 pg
MCHC [2]: 32.7%
MCV [2]: 64 fL
Mono [2]: 3.2%
Neu [2]: 19.4%
PT [2]: 15.6 s
Plat [2]: 119.8 x10_4/uL
RBC [2]: 626.8 x10_4/ul
Ret [2]: 7.4%
WBC [2]: 74.1 x10_2/uL
KIDNEY_L [2]: 0.9 g
KIDNEY_R [2]: 0.9 g
KIDNEY_TOTAL [2]: 1.8 g
LIVER [2]: 9 g
A/G [2]: 1.2
ALP [2]: 1323.6 IU/L
ALT [2]: 41.6 IU/L
AST [2]: 86 IU/L
BUN [2]: 11.6 mg/dL
CRE [2]: 0.2 mg/dL
Ca [2]: 10.6 mg/dL
Cl [2]: 108.4 meq/L
DBIL [2]: 0 mg/dL
GLC [2]: 191 mg/dL
IP [2]: 8.2 mg/dL
K [2]: 3.5 meq/L
LDH [2]: 212 IU/L
Na [2]: 140.4 meq/L
PL [2]: 126 mg/dL
RALB [2]: 3.2 g/dL
TBIL [2]: 0.018 mg/dL
TC [2]: 70.2 mg/dL
TG [2]: 36 mg/dL
TP [2]: 5.7 g/dL
gamma-GTP [2]: 1.2 IU/L
TERMINAL_BW [3]: 211.1 g
APTT [3]: 22.3 s
Bas [3]: 0%
Eos [3]: 0.8%
Fbg [3]: 349.8 mg/dL
Hb [3]: 12.9 g/dL
Ht [3]: 38.8%
Lym [3]: 73.2%
MCH [3]: 20.6 pg
MCHC [3]: 33.4%
MCV [3]: 61.8 fL
Mono [3]: 2%
Neu [3]: 22%
PT [3]: 15.8 s
Plat [3]: 120.3 x10_4/uL
RBC [3]: 630.2 x10_4/ul
Ret [3]: 7.2%
WBC [3]: 77.3 x10_2/uL
KIDNEY_L [3]: 1 g
KIDNEY_R [3]: 1 g
KIDNEY_TOTAL [3]: 2 g
LIVER [3]: 8.6 g
A/G [3]: 1.2
ALP [3]: 1618.2 IU/L
ALT [3]: 43.8 IU/L
AST [3]: 87.2 IU/L
BUN [3]: 9.8 mg/dL
CRE [3]: 0.2 mg/dL
Ca [3]: 10.7 mg/dL
Cl [3]: 107.2 meq/L
DBIL [3]: 0 mg/dL
GLC [3]: 165.2 mg/dL
IP [3]: 8.3 mg/dL
K [3]: 3.7 meq/L
LDH [3]: 168.2 IU/L
Na [3]: 140.2 meq/L
PL [3]: 121.6 mg/dL
RALB [3]: 3.2 g/dL
TBIL [3]: 0.022 mg/dL
TC [3]: 73.8 mg/dL
TG [3]: 23.8 mg/dL
TP [3]: 5.9 g/dL
gamma-GTP [3]: 1.2 IU/L
TERMINAL_BW [4]: 225.6 g
APTT [4]: 22.2 s
Bas [4]: 0%
Eos [4]: 0.8%
Fbg [4]: 293 mg/dL
Hb [4]: 13.9 g/dL
Ht [4]: 41.4%
Lym [4]: 76.2%
MCH [4]: 20.6 pg
MCHC [4]: 33.6%
MCV [4]: 61.2 fL
Mono [4]: 3%
Neu [4]: 18.6%
PT [4]: 16 s
Plat [4]: 115 x10_4/uL
RBC [4]: 676.8 x10_4/ul
Ret [4]: 6.5%
WBC [4]: 97.8 x10_2/uL
KIDNEY_L [4]: 1 g
KIDNEY_R [4]: 1 g
KIDNEY_TOTAL [4]: 2 g
LIVER [4]: 10.1 g
A/G [4]: 1.2
ALP [4]: 1662.4 IU/L
ALT [4]: 42.8 IU/L
AST [4]: 73.4 IU/L
BUN [4]: 15.6 mg/dL
CRE [4]: 0.2 mg/dL
Ca [4]: 10.9 mg/dL
Cl [4]: 106 meq/L
DBIL [4]: 0.006 mg/dL
GLC [4]: 191.2 mg/dL
IP [4]: 8.8 mg/dL
K [4]: 4.1 meq/L
LDH [4]: 168.4 IU/L
Na [4]: 142.2 meq/L
PL [4]: 135.4 mg/dL
RALB [4]: 3 g/dL
TBIL [4]: 0.006 mg/dL
TC [4]: 78.2 mg/dL
TG [4]: 60.6 mg/dL
TP [4]: 5.5 g/dL
gamma-GTP [4]: 1.4 IU/L
TERMINAL_BW [5]: 215.6 g
APTT [5]: 22.6 s
Bas [5]: 0%
Eos [5]: 1%
Fbg [5]: 278 mg/dL
Hb [5]: 12.3 g/dL
Ht [5]: 37.4%
Lym [5]: 67.2%
MCH [5]: 20.1 pg
MCHC [5]: 32.9%
MCV [5]: 60.9 fL
Mono [5]: 3%
Neu [5]: 28%
PT [5]: 15.9 s
Plat [5]: 113.5 x10_4/uL
RBC [5]: 614.2 x10_4/ul
Ret [5]: 7.9%
WBC [5]: 58.9 x10_2/uL
KIDNEY_L [5]: 0.9 g
KIDNEY_R [5]: 0.9 g
KIDNEY_TOTAL [5]: 1.8 g
LIVER [5]: 9.1 g
A/G [5]: 1.3
ALP [5]: 1241.4 IU/L
ALT [5]: 43.8 IU/L
AST [5]: 93.6 IU/L
BUN [5]: 13.8 mg/dL
CRE [5]: 0.1 mg/dL
Ca [5]: 10 mg/dL
Cl [5]: 104.4 meq/L
DBIL [5]: 0 mg/dL
GLC [5]: 202.8 mg/dL
IP [5]: 7.2 mg/dL
K [5]: 3.2 meq/L
LDH [5]: 215.8 IU/L
Na [5]: 136.8 meq/L
PL [5]: 109.8 mg/dL
RALB [5]: 3.1 g/dL
TBIL [5]: 0.014 mg/dL
TC [5]: 66.8 mg/dL
TG [5]: 20 mg/dL
TP [5]: 5.4 g/dL
gamma-GTP [5]: 1.8 IU/L
TERMINAL_BW [6]: 216 g
APTT [6]: 22.3 s
Bas [6]: 0%
Eos [6]: 0.2%
Fbg [6]: 329.2 mg/dL
Hb [6]: 13.1 g/dL
Ht [6]: 39.7%
Lym [6]: 58.6%
MCH [6]: 20.6 pg
MCHC [6]: 33.1%
MCV [6]: 62.3 fL
Mono [6]: 3.6%
Neu [6]: 35.6%
PT [6]: 15.5 s
Plat [6]: 123.7 x10_4/uL
RBC [6]: 636.8 x10_4/ul
Ret [6]: 7.6%
WBC [6]: 75.8 x10_2/uL
KIDNEY_L [6]: 1 g
KIDNEY_R [6]: 1 g
KIDNEY_TOTAL [6]: 1.9 g
LIVER [6]: 9.5 g
A/G [6]: 1.3
ALP [6]: 1423 IU/L
ALT [6]: 46.2 IU/L
AST [6]: 111.4 IU/L
BUN [6]: 13.8 mg/dL
CRE [6]: 0.2 mg/dL
Ca [6]: 10.4 mg/dL
Cl [6]: 108.2 meq/L
DBIL [6]: 0 mg/dL
GLC [6]: 206.6 mg/dL
IP [6]: 6.8 mg/dL
K [6]: 3.5 meq/L
LDH [6]: 212.6 IU/L
Na [6]: 140.2 meq/L
PL [6]: 127 mg/dL
RALB [6]: 3.4 g/dL
TBIL [6]: 0.016 mg/dL
TC [6]: 72 mg/dL
TG [6]: 22.2 mg/dL
TP [6]: 6.1 g/dL
gamma-GTP [6]: 1.4 IU/L
TERMINAL_BW [7]: 212.2 g
APTT [7]: 24.6 s
Bas [7]: 0%
Eos [7]: 0%
Fbg [7]: 335.8 mg/dL
Hb [7]: 12.9 g/dL
Ht [7]: 38.7%
Lym [7]: 69.4%
MCH [7]: 20.3 pg
MCHC [7]: 33.4%
MCV [7]: 60.9 fL
Mono [7]: 1.4%
Neu [7]: 28.6%
PT [7]: 15.5 s
Plat [7]: 120.5 x10_4/uL
RBC [7]: 634.8 x10_4/ul
Ret [7]: 7.6%
WBC [7]: 51.8 x10_2/uL
KIDNEY_L [7]: 0.9 g
KIDNEY_R [7]: 0.9 g
KIDNEY_TOTAL [7]: 1.8 g
LIVER [7]: 8.7 g
A/G [7]: 1.3
ALP [7]: 1474.4 IU/L
ALT [7]: 38.8 IU/L
AST [7]: 86.2 IU/L
BUN [7]: 12 mg/dL
CRE [7]: 0.2 mg/dL
Ca [7]: 10.8 mg/dL
Cl [7]: 105 meq/L
DBIL [7]: 0 mg/dL
GLC [7]: 193.6 mg/dL
IP [7]: 7.1 mg/dL
K [7]: 3.5 meq/L
LDH [7]: 182.8 IU/L
Na [7]: 139 meq/L
PL [7]: 141 mg/dL
RALB [7]: 3.4 g/dL
TBIL [7]: 0.026 mg/dL
TC [7]: 77.4 mg/dL
TG [7]: 30.6 mg/dL
TP [7]: 6.2 g/dL
gamma-GTP [7]: 1.2 IU/L
TERMINAL_BW [8]: 224.5 g
APTT [8]: 21.6 s
Bas [8]: 0%
Eos [8]: 0.4%
Fbg [8]: 370.4 mg/dL
Hb [8]: 13.9 g/dL
Ht [8]: 41.2%
Lym [8]: 70.2%
MCH [8]: 20.7 pg
MCHC [8]: 33.6%
MCV [8]: 61.4 fL
Mono [8]: 3.2%
Neu [8]: 24%
PT [8]: 16.3 s
Plat [8]: 124.1 x10_4/uL
RBC [8]: 670.4 x10_4/ul
Ret [8]: 7%
WBC [8]: 103.6 x10_2/uL
KIDNEY_L [8]: 0.9 g
KIDNEY_R [8]: 1 g
KIDNEY_TOTAL [8]: 1.9 g
LIVER [8]: 9.4 g
A/G [8]: 1.2
ALP [8]: 1552.6 IU/L
ALT [8]: 44.8 IU/L
AST [8]: 76.2 IU/L
BUN [8]: 16.4 mg/dL
CRE [8]: 0.2 mg/dL
Ca [8]: 11.2 mg/dL
Cl [8]: 104.4 meq/L
DBIL [8]: 0 mg/dL
GLC [8]: 186.4 mg/dL
IP [8]: 8.4 mg/dL
K [8]: 4 meq/L
LDH [8]: 180 IU/L
Na [8]: 141.6 meq/L
PL [8]: 129.8 mg/dL
RALB [8]: 3.1 g/dL
TBIL [8]: 0.018 mg/dL
TC [8]: 75 mg/dL
TG [8]: 38.8 mg/dL
TP [8]: 5.6 g/dL
gamma-GTP [8]: 1.4 IU/L

Source: ChEMBL document CHEMBL3885861, “Open TG-GATES”
